Laboratory results reported in patent US5603943A, “Nasally administrable compositions” (Dott Research Laboratory, priority 1994, dated 1997).
Where “and” joins values, the source holds several entries; their conditions need not be identical. Identical values can stand only once.

Columns and labels:
[1] = Glucagon blood concentration, nasal powder with calcium carbonate, two doses (Test Example 12); format: in vivo, healthy male adults (human)
Description: (§1) A nasally administrable composition in powdery form was prepared by formulating glucagon (from hog spleen) as a physiologically active peptide at the rate of 40 mg per composition (1,000 mg) with calcium carbonate as a carrier having a mean particle size ranging from 40 to 45 μm.
(§2) The resulting composition was nasally administered once at a dose of 0.4 glucagon unit/30 mg to two healthy male adults and 2 glucagon unit/30 mg to another two healthy male adults, and the blood (2.5 ml) was collected from each of the tested adults prior to administration and then at 5, 10, 15, 20, 30, 45, 60, 90, 120, 150 and 180 minutes after administration. The concentration of the glucagon in each of the collected blood samples was assayed with a standard RIA assay kit.

[2] = Nasal absorption, clinical effect and irritation (general statement); format: in vivo; conditions: powder in specific carrier, nasal route
[3] = Glucagon blood concentration, nasal powder with calcium carbonate (Test Example 9); format: in vivo, healthy male adults (human); conditions: for Concentration of glucagon in the blood: nasal 1.2 glucagon unit/30 mg, individual cases No. 21-24 in order
Description: as §1
[…] The concentration of the glucagon in each of the collected blood samples was assayed with a standard RIA assay kit.

[4] = Glucagon blood concentration, nasal powder with hydroxyapatite (Test Example 8); format: in vivo, healthy male adults (human)
Description: A nasally administrable composition in powdery form was prepared by formulating glucagon (from hog spleen) as a physiologically active peptide at the rate of 40 mg per composition (1,000 mg) with hydroxyapatite as a carrier having a mean particle size ranging from 40 to 45 μm.
as §2, with “1.2” for “0.4”, “three” for “two”, “adults” for “adults and 2 glucagon unit/30 mg to another two healthy male adults,”

Q: Which “Concentration of glucagon in the blood” value ([1]; 0 min (predose), nasal 0.4 glucagon unit/30 mg, individual cases No. 33-34 in order) does the source give for glucagon here?
A: 0.112 ng/mL and 0.06 ng/mL

Q: What about the “Concentration of glucagon in the blood” value ([1]; 0 min (predose), nasal 2 glucagon unit/30 mg, individual cases No. 35-36 in order) of the same substance?
A: 0.053 ng/mL and 0.097 ng/mL

Q: And the “absorption through nasal route” value ([1]; 0.4 and 2 glucagon unit)?
A: high extent of absorption

Q: What about the “Concentration of glucagon in the blood” value ([1]; 5 min, nasal 0.4 glucagon unit/30 mg, individual cases No. 33-34 in order) of the same substance?
A: 0.115 ng/mL and 0.065 ng/mL

Q: What about the “Concentration of glucagon in the blood” value ([1]; 5 min, nasal 2 glucagon unit/30 mg, individual cases No. 35-36 in order) of the same substance?
A: 0.076 ng/mL and 0.109 ng/mL

Q: What about the “Concentration of glucagon in the blood” value ([1]; 10 min, nasal 0.4 glucagon unit/30 mg, individual cases No. 33-34 in order) of the same substance?
A: 0.119 ng/mL and 0.077 ng/mL

Q: What about the “Concentration of glucagon in the blood” value ([1]; 10 min, nasal 2 glucagon unit/30 mg, individual cases No. 35-36 in order) of the same substance?
A: 0.116 ng/mL and 0.104 ng/mL

Q: What about the “Concentration of glucagon in the blood” value ([1]; 15 min, nasal 0.4 glucagon unit/30 mg, individual cases No. 33-34 in order) of the same substance?
A: 0.13 ng/mL and 0.072 ng/mL

Q: What about the “Concentration of glucagon in the blood” value ([1]; 15 min, nasal 2 glucagon unit/30 mg, individual cases No. 35-36 in order) of the same substance?
A: 0.085 ng/mL and 0.096 ng/mL

Q: What about the “Concentration of glucagon in the blood” value ([1]; 20 min, nasal 0.4 glucagon unit/30 mg, individual cases No. 33-34 in order) of the same substance?
A: 0.127 ng/mL and 0.079 ng/mL

Q: And the “Concentration of glucagon in the blood” value ([1]; 20 min, nasal 2 glucagon unit/30 mg, individual cases No. 35-36 in order)?
A: 0.102 ng/mL and 0.118 ng/mL

Q: And the “Concentration of glucagon in the blood” value ([1]; 30 min, nasal 0.4 glucagon unit/30 mg, individual cases No. 33-34 in order)?
A: 0.116 ng/mL and 0.086 ng/mL

Q: And the “Concentration of glucagon in the blood” value ([1]; 30 min, nasal 2 glucagon unit/30 mg, individual cases No. 35-36 in order)?
A: 0.056 ng/mL and 0.1 ng/mL

Q: And the “Concentration of glucagon in the blood” value ([1]; 45 min, nasal 0.4 glucagon unit/30 mg, individual cases No. 33-34 in order)?
A: 0.121 ng/mL and 0.075 ng/mL

Q: What about the “Concentration of glucagon in the blood” value ([1]; 45 min, nasal 2 glucagon unit/30 mg, individual cases No. 35-36 in order) of the same substance?
A: 0.094 ng/mL and 0.105 ng/mL

Q: What about the “Concentration of glucagon in the blood” value ([1]; 60 min, nasal 0.4 glucagon unit/30 mg, individual cases No. 33-34 in order) of the same substance?
A: 0.137 ng/mL and 0.061 ng/mL

Q: What about the “Concentration of glucagon in the blood” value ([1]; 60 min, nasal 2 glucagon unit/30 mg, individual cases No. 35-36 in order) of the same substance?
A: 0.079 ng/mL and 0.122 ng/mL

Q: What about the “Concentration of glucagon in the blood” value ([1]; 90 min, nasal 0.4 glucagon unit/30 mg, individual cases No. 33-34 in order) of the same substance?
A: 0.122 ng/mL and 0.066 ng/mL

Q: And the “Concentration of glucagon in the blood” value ([1]; 90 min, nasal 2 glucagon unit/30 mg, individual cases No. 35-36 in order)?
A: 0.06 ng/mL and 0.117 ng/mL

Q: What about the “Concentration of glucagon in the blood” value ([1]; 120 min, nasal 0.4 glucagon unit/30 mg, individual cases No. 33-34 in order) of the same substance?
A: 0.108 ng/mL and 0.057 ng/mL

Q: What about the “Concentration of glucagon in the blood” value ([1]; 120 min, nasal 2 glucagon unit/30 mg, individual cases No. 35-36 in order) of the same substance?
A: 0.069 ng/mL and 0.099 ng/mL

Q: And the “Concentration of glucagon in the blood” value ([1]; 150 min, nasal 0.4 glucagon unit/30 mg, individual cases No. 33-34 in order)?
A: 0.111 ng/mL and 0.076 ng/mL

Q: What about the “Concentration of glucagon in the blood” value ([1]; 150 min, nasal 2 glucagon unit/30 mg, individual cases No. 35-36 in order) of the same substance?
A: 0.069 ng/mL and 0.106 ng/mL

Q: And the “Concentration of glucagon in the blood” value ([1]; 180 min, nasal 0.4 glucagon unit/30 mg, individual cases No. 33-34 in order)?
A: 0.11 ng/mL and 0.074 ng/mL

Q: And the “Concentration of glucagon in the blood” value ([1]; 180 min, nasal 2 glucagon unit/30 mg, individual cases No. 35-36 in order)?
A: 0.06 ng/mL and 0.105 ng/mL

Q: And the “absorption into the body” value [2]?
A: well absorbed into the body

Q: What about the clinical effects [2] of the same substance?
A: high clinical effects

Q: And the “absorption through nasal route” value [3]?
A: high extent of absorption

Q: What about the “Concentration of glucagon in the blood” value ([3]; 0 min (predose)) of the same substance?
A: 0.034 ng/mL and 0.056 ng/mL and 0.042 ng/mL and 0.048 ng/mL

Q: And the “Concentration of glucagon in the blood” value ([3]; 5 min)?
A: 0.073 ng/mL and 0.079 ng/mL and 0.08 ng/mL and 0.053 ng/mL

Q: What about the “Concentration of glucagon in the blood” value ([3]; 10 min) of the same substance?
A: 0.097 ng/mL and 0.091 ng/mL and 0.08 ng/mL and 0.044 ng/mL

Q: And the “Concentration of glucagon in the blood” value ([3]; 15 min)?
A: 0.086 ng/mL and 0.079 ng/mL and 0.083 ng/mL and 0.053 ng/mL

Q: And the “Concentration of glucagon in the blood” value ([3]; 20 min)?
A: 0.085 ng/mL and 0.089 ng/mL and 0.082 ng/mL and 0.05 ng/mL

Q: And the “Concentration of glucagon in the blood” value ([3]; 30 min)?
A: 0.071 ng/mL and 0.077 ng/mL and 0.09 ng/mL and 0.055 ng/mL

Q: What about the “Concentration of glucagon in the blood” value ([3]; 45 min) of the same substance?
A: 0.073 ng/mL and 0.089 ng/mL and 0.076 ng/mL and 0.049 ng/mL

Q: And the “Concentration of glucagon in the blood” value ([3]; 60 min)?
A: 0.064 ng/mL and 0.079 ng/mL and 0.077 ng/mL and 0.046 ng/mL

Q: What about the “Concentration of glucagon in the blood” value ([3]; 90 min) of the same substance?
A: 0.062 ng/mL and 0.078 ng/mL and 0.073 ng/mL and 0.047 ng/mL

Q: What about the “Concentration of glucagon in the blood” value ([3]; 120 min) of the same substance?
A: 0.056 ng/mL and 0.079 ng/mL and 0.088 ng/mL and 0.046 ng/mL

Q: And the “Concentration of glucagon in the blood” value ([3]; 150 min)?
A: 0.052 ng/mL and 0.067 ng/mL and 0.079 ng/mL and 0.054 ng/mL

Q: What about the “Concentration of glucagon in the blood” value ([3]; 180 min) of the same substance?
A: 0.051 ng/mL and 0.066 ng/mL and 0.062 ng/mL and 0.05 ng/mL

Q: What about the “absorption through nasal route” value [4] of the same substance?
A: high extent of absorption

Q: And the “Concentration of glucagon in the blood” value ([4]; 0 min (predose), nasal 1.2 glucagon unit/30 mg, individual cases No. 17-20 in order)?
A: 0.051 ng/mL and 0.046 ng/mL and 0.036 ng/mL and 0.068 ng/mL
